Test results published in paper PMC5698418 (Nature Communications, 2017).
Structures can show the parent of a compound that is named as a salt. Where two headings read alike, the source gives them in different places.

Test system: BDNF-induced nuclear Arc expression in primary cortical neurons
Assay: Chemogenomic screen: high-content image-based assay of BDNF-induced nuclear Arc expression (96-well)
Format: cell-based, mouse
Procedure: To increase the throughput of our pharmacological screening for modulators of Arc, the above mentioned assay was adapted to cultures of mouse primary cortical neurons in 96-well plates.
All 319 compounds were initially tested at a final concentration of 16.7 µM with three biological replicates.
Screening of compounds in the chemogenomic library was carried out using DIV13 primary forebrain cortical neurons cultured on poly-L-lysine/laminin-coated 96-well plates (Ibidi USA, Madison, WI). Cells were seeded at a density of 30,000 cells per well and treated with the compound library and BDNF according to the experimental design presented in Fig. 3a. After experimental treatment, cells were processed for Arc and acetyl-H3K9 immunocytochemistry according to the protocol described above. Both antigens (Arc and acetyl-H3K9) were imaged using an IN Cell Analyzer 6000 imaging system and a ×40 objective. […] High-throughput quantification of nuclear Arc immunofluorescence signal was performed in a similar fashion than the low-throughput procedure described above but with the exception that acetyl-H3K9 was used as a nuclear mask to guide the automated quantification of nuclear Arc immunofluorescence signal.

[1] = BDNF-induced nuclear Arc expression, primary cortical neurons, chemogenomic screen
[2] = nuclear Arc-positive cells relative to DMSO control (BDNF), negative = decrease
[3] = chemogenomic (SMART) screen, BDNF-induced nuclear Arc expression, primary cortical neurons, BDNF control 19.5
[4] = nuclear Arc-positive cells relative to DMSO + BDNF control, negative values = decrease

Molecule | Percentage of cell with nuclear Arc immunostaining above 2σ threshold [3] [%] | Fold-change — Normalized to DMSO control (BDNF) [4] [fold] | further results
COc1cc(/C=C/C(=O)C(=Cc2ccc(F)c(F)c2)C(=O)/C=C/c2ccc(O)c(OC)c2)ccc1O [3,4-Difluorobenzocurcumin] | – | – | Percentage of cell with nuclear Arc immunostaining above 2σ threshold [1]: 1.4%; Fold-change — Normalized to DMSO control (BDNF) [2]: -14.1 fold
CN1C(=O)CC(c2ccccc2)C1=O (stereo not shown) [Phensuximide] | 24.8 | 1.3 | –
Cc1ccc2c(c1)c1c3n2CCNC3CCC1 (stereo not shown) [Pirlindole] | 15.3 | – | –
C=C[C@@]1(C)CC(=O)[C@]2(O)[C@@]3(C)[C@@H](O)CCC(C)(C)[C@@H]3[C@H](OC(=O)CCN(C)C)[C@H](OC(C)=O)[C@@]2(C)O1.Cl [Colforsin dapropate hydrochloride] | 21.7 | 1.1 | –
Cn1c(=O)c2[nH]cnc2n(C)c1=O [Aminophylline] | 23.1 | 1.2 | –
Cc1ccc(C23CNCC2C3)cc1 (stereo not shown) [Bicifadine] | – | – | Percentage of cell with nuclear Arc immunostaining above 2σ threshold [1]: 7.2%
CN1CCCC(CC2c3ccccc3Sc3ccccc32)C1 (stereo not shown) [Metixene] | – | – | Percentage of cell with nuclear Arc immunostaining above 2σ threshold [1]: 6.7%
CN(C)CCC=C1c2ccccc2C=Cc2ccccc21 [Cyclobenzaprine] | 14.1 | – | –
CC[C@H](C)[C@H](NC(=O)[C@H](CO)NC(=O)[C@@H](NC(=O)[C@@H]1CCCN1C(=O)[C@H](C)NC(=O)[C@@H](N)CC(N)=O)C(C)C)C(=O)N1CCC[C@H]1C(=O)N[C@@H](CCC(N)=O)C(=O)O [AL-108] | – | – | Percentage of cell with nuclear Arc immunostaining above 2σ threshold [1]: 8.6%; Fold-change — Normalized to DMSO control (BDNF) [2]: -2.3 fold
CCN[C@H]1CN(CCCOC)S(=O)(=O)c2sc(S(N)(=O)=O)cc21 [Brinzolamide] | 28.3 | 1.5 | –
CC(C)c1c(CN(C)C(C)Cc2ccccc2)n(C)n(-c2ccccc2)c1=O (stereo not shown) [Famprofazone] | – | – | Percentage of cell with nuclear Arc immunostaining above 2σ threshold: 18.1%
Clc1ccc2c(c1)C(N1CCNCC1)=Nc1ccccc1O2 [Amoxapine] | 12.9 | – | –
C[S+]([O-])CCCCN=C=S (stereo not shown) [Sulforaphane] | 18.2 | – | –
CC[N+](CC)(CCNC(=O)C(=O)NCC[N+](CC)(CC)Cc1ccccc1Cl)Cc1ccccc1Cl [Ambenonium] | – | – | Percentage of cell with nuclear Arc immunostaining above 2σ threshold: 15.1%
O=C(CCNNC(=O)c1ccncc1)NCc1ccccc1 [Nialamide] | 29.9 | 1.5 | –
COc1ccc(C(=O)NCc2ccc(OCCN(C)C)cc2)cc1OC.Cl [Itopride hydrochloride] | – | 1.2 | Percentage of cell with nuclear Arc immunostaining above 2σ threshold: 23.8%
CC(=O)Nc1nnc(S(N)(=O)=O)s1 [Acetazolamide] | – | – | Percentage of cell with nuclear Arc immunostaining above 2σ threshold [1]: 4.9%
COc1cc2c(NC3CCN(C)CC3)nc(N3CCCN(C)CC3)nc2cc1OCCCN(C)C [UNC 0224] | 40.5 | 2.1 | –
COc1cc(N)c(Cl)cc1C(=O)NC1CCN(Cc2ccccc2)CC1 [Clebopride] | 25.8 | 1.3 | –
CC1Nc2ccc(Cl)cc2S(=O)(=O)N1 (stereo not shown) [IDRA-21] | 12.2 | -1.6 | –
CCNC(=O)CC[C@H](N)C(=O)O [Theanine] | – | – | Percentage of cell with nuclear Arc immunostaining above 2σ threshold [1]: 9.1%
Cc1nc2n(c(=O)c1CCN1CCC(c3noc4cc(F)ccc34)CC1)CCCC2O (stereo not shown) [Paliperidone] | 15.2 | – | –

Molecule | Percentage of cell with nuclear Arc immunostaining above 2σ threshold [3] [%] | Fold-change — Normalized to DMSO control (BDNF) [4] [fold] | further results
CC(C)CC(N(C)C)C1(c2ccc(Cl)cc2)CCC1 (stereo not shown) [Sibutramine] | – | 1.1 | Percentage of cell with nuclear Arc immunostaining above 2σ threshold: 21.3%
O=C(O)C1CCCNC1 (stereo not shown) [Nipecotic acid] | – | 1.4 | Percentage of cell with nuclear Arc immunostaining above 2σ threshold: 26.3%
Eburnamonine (-) | 18.5 | -1.1 | –
NS(=O)(=O)Cc1noc2ccccc12 [Zonisamide] | – | – | Percentage of cell with nuclear Arc immunostaining above 2σ threshold [1]: 9.8%
COc1ccc2c3c([nH]c2c1)C(C)=NCC3 [Harmaline] | – | 1.5 | Percentage of cell with nuclear Arc immunostaining above 2σ threshold: 28.8%
CC(C)n1c(=O)n(C(=O)NC2CC3CCC(C2)N3C)c2ccccc21 (stereo not shown) [BIMU-8] | – | -1.2 | Percentage of cell with nuclear Arc immunostaining above 2σ threshold: 16.3%
CNCCC(Oc1ccccc1OC)c1ccccc1 (stereo not shown) [Nisoxetine hydrochloride] | – | – | Percentage of cell with nuclear Arc immunostaining above 2σ threshold: 19.1%
CC(=O)[C@H]1CC[C@H]2[C@@H]3CC=C4C[C@@H](O)CC[C@]4(C)[C@H]3CC[C@]12C [Pregnenolone] | 24.4 | 1.2 | –
Clc1ccc2nsnc2c1NC1=NCCN1 [Tizanidine] | 35.8 | 1.8 | –
O=c1c(-c2ccc(O)cc2)coc2cc(O)cc(O)c12 [Genistein] | 31.7 | 1.6 | –
CC(=C(CCO)SSCC1CCCO1)N(C=O)Cc1cnc(C)nc1N (stereo in doubt) [Fursultiamine] | – | – | Percentage of cell with nuclear Arc immunostaining above 2σ threshold: 15.4%
O=c1c(O)c(-c2ccc(O)cc2)oc2cc(O)cc(O)c12 [Kaempferol] | – | – | Percentage of cell with nuclear Arc immunostaining above 2σ threshold [1]: 4.0%
CN1CCC(=C2c3ccccc3CC(=O)c3sccc32)CC1 [Ketotifen] | 12.3 | – | –
COc1ccc(C(=O)N2CCCC2=O)cc1 [Aniracetam] | – | – | Percentage of cell with nuclear Arc immunostaining above 2σ threshold [1]: 8.2%
Cl.O=C(O)C1=CCCN(CCON=C(c2ccccc2)c2ccccc2)C1 [NNC 711 hydrochloride] | – | 1.1 | Percentage of cell with nuclear Arc immunostaining above 2σ threshold: 21.4%
CCc1ccc(CCOc2ccc(CC3SC(=O)NC3=O)cc2)nc1 (stereo not shown) [Pioglitazone] | 15.4 | – | –
CCN1CCCC1CNC(=O)c1cc(S(=O)(=O)CC)c(N)cc1OC (stereo not shown) [Amisulpride] | 24.6 | 1.3 | –
CHIR-98014 | – | – | Fold-change — Normalized to DMSO control (BDNF): -1.0 fold; Percentage of cell with nuclear Arc immunostaining above 2σ threshold: 19.2%
CN1C[C@H](C(=O)N[C@]2(C)O[C@@]3(O)[C@@H]4CCCN4C(=O)[C@H](Cc4ccccc4)N3C2=O)C[C@@H]2c3cccc4[nH]cc(c34)C[C@H]21.CN1C[C@H](C(=O)N[C@]2(C)O[C@@]3(O)[C@@H]4CCCN4C(=O)[C@H](Cc4ccccc4)N3C2=O)C[C@@H]2c3cccc4[nH]cc(c34)C[C@H]21.O=C(O)C(O)C(O)C(=O)O [Dihydroergotamine tartrate] | 22.0 | 1.1 | –
O=c1cccc2n1C[C@@H]1CNC[C@H]2C1 [Cytisine] | – | – | Percentage of cell with nuclear Arc immunostaining above 2σ threshold: 15.7%
O=c1c(-c2ccc(O)cc2)coc2cc(O)ccc12 [Daidzein] | 40.8 | 2.1 | –
